Test results reported in paper PMC8286840, “Identifying SARS-CoV-2 antiviral compounds by screening for small molecule inhibitors of Nsp3 papain-like protease” (Biochemical Journal, 2021).
Structures can show the parent of a compound that is named as a salt. Where two headings read alike, the source gives them in different places.

Experiments:
[1] = target: T1, SARS-CoV-2 PLpro (nsp3 1564–1878) (Severe acute respiratory syndrome coronavirus 2, UniProt P0DTD1); assay: biochemical; design: FRET-quenched peptide (Pro3) cleavage by PLpro, 10 min pre-incubation, slope over 20 min, normalised to no-compound control; settings: high concentration screen, read-out: % of control remaining
[2] = target: T1, SARS-CoV-2 PLpro (nsp3 1564–1878); assay: biochemical; design: FRET-quenched peptide (Pro3) cleavage by PLpro, 10 min pre-incubation, slope over 20 min, normalised to no-compound control; settings: low concentration screen, read-out: % of control remaining

For COc1cc2nccc(Oc3ccc(NC(=O)Nc4cc(C)on4)c(Cl)c3)c2cc1OC [Tivozanib], which remaining activity at 3.75 µM ([1]; Well no.=2932) is on record?
The remaining activity at 3.75 µM was 99%.

And the remaining activity at 1.25 µM ([2]; Well no.=2932)?
Its remaining activity at 1.25 µM is 96.1%.

How did the remaining activity at 3.75 µM ([1]; Well no.=5156) turn out when N#CC1(c2ccc(NC(=O)c3cccnc3NCc3ccncc3)cc2)CCCC1 [Apatinib (YN968D1)] was run?
The remaining activity at 3.75 µM was 102%.

What about the remaining activity at 1.25 µM ([2]; Well no.=5156) of the same compound?
Its remaining activity at 1.25 µM is 101%.

Which results are given for C[C@H]1COc2c(N3CCN(C)CC3)c(F)cc3c(=O)c(C(=O)O)cn1c23 [Levofloxacin]?
remaining activity at 3.75 µM ([1]; Well no.=2266): 98.5%; remaining activity at 1.25 µM ([2]; Well no.=2266): 97.9%

Which results are given for c1ccc2nc(N3CCNCC3)ccc2c1 [Quipazine dimaleate]?
remaining activity at 3.75 µM ([1]; Well no.=1411): 101%; remaining activity at 1.25 µM ([2]; Well no.=1411): 99.5%

Which remaining activity at 3.75 µM ([1]; Well no.=6013) does the source give for COc1ccccc1N1CCN(CCCCNC(=O)c2ccc3ccccc3c2)CC1 [BP897] here?
The remaining activity at 3.75 µM was 98.6%.

What about the remaining activity at 1.25 µM ([2]; Well no.=6013) of the same compound?
The remaining activity at 1.25 µM was 106%.

Which remaining activity at 3.75 µM ([1]; Well no.=1137) does the source give for COc1ccccc1N1CCN(CCN(C(=O)c2ccc(I)cc2)c2ccccn2)CC1 [p-MPPI hydrochloride] here?
The remaining activity at 3.75 µM was 102%.

What about the remaining activity at 1.25 µM ([2]; Well no.=1137) of the same compound?
Its remaining activity at 1.25 µM is 97.8%.

With COc1cc(C(O)C(=O)O)ccc1O (racemic) as the compound, how does the remaining activity at 3.75 µM ([1]; Well no.=606) read?
Its remaining activity at 3.75 µM is 97.2%.

What about the remaining activity at 1.25 µM ([2]; Well no.=606) of the same compound?
The remaining activity at 1.25 µM was 96%.

What does the source list for O=C(CN1C(=O)C2(CCCC2)NC[C@H]1c1cc(F)cc(F)c1)Nc1ccc2c(c1)C[C@@]1(C2)C(=O)Nc2ncccc21 [MK-3207 (Hydrochloride)]?
remaining activity at 3.75 µM ([1]; Well no.=6950): 93.6%; remaining activity at 1.25 µM ([2]; Well no.=6950): 93.4%

With CC(=O)Oc1ccccc1C(=O)Nc1ncc([N+](=O)[O-])s1 [Nitazoxanide] as the compound, how does the remaining activity at 3.75 µM ([1]; Well no.=5482) read?
Its remaining activity at 3.75 µM is 101%.

And the remaining activity at 1.25 µM ([2]; Well no.=5482)?
Its remaining activity at 1.25 µM is 101%.

With N[C@@H](Cc1ccc(O)c(O)c1)C(=O)O [Levodopa] as the compound, how does the remaining activity at 3.75 µM ([1]; Well no.=2264) read?
The remaining activity at 3.75 µM was 95.2%.

What about the remaining activity at 1.25 µM ([2]; Well no.=2264) of the same compound?
The remaining activity at 1.25 µM was 93.8%.

For COc1ccccc1OCC(O)COC(N)=O (stereo not drawn) [Methocarbamol], which remaining activity at 3.75 µM ([1]; Well no.=8238) is on record?
The remaining activity at 3.75 µM was 94.6%.

What about the remaining activity at 1.25 µM ([2]; Well no.=8238) of the same compound?
Its remaining activity at 1.25 µM is 98%.

How did the remaining activity at 3.75 µM ([1]; Well no.=5820) turn out when O=C(Nc1ccc(Cl)cc1)Nc1cccc(-c2cccc(N3CCCC3)n2)c1 [PSNCBAM-1] was run?
The remaining activity at 3.75 µM was 97%.

And the remaining activity at 1.25 µM ([2]; Well no.=5820)?
The remaining activity at 1.25 µM was 105%.

With NC1CCc2cc(O)c(O)cc2C1 (stereo not drawn) [6,7-ADTN hydrobromide] as the compound, how does the remaining activity at 3.75 µM ([1]; Well no.=444) read?
Its remaining activity at 3.75 µM is 104%.

What about the remaining activity at 1.25 µM ([2]; Well no.=444) of the same compound?
Its remaining activity at 1.25 µM is 101%.

Which remaining activity at 3.75 µM ([1]; Well no.=1364) does the source give for CCN1CCC[C@H]1CNC(=O)c1cc(S(N)(=O)=O)ccc1OC [(-)-Sulpiride] here?
Its remaining activity at 3.75 µM is 99.2%.

What about the remaining activity at 1.25 µM ([2]; Well no.=1364) of the same compound?
The remaining activity at 1.25 µM was 101%.

Which remaining activity at 3.75 µM ([1]; Well no.=7726) does the source give for C[N+](C)(C)CCOP(=O)(O)OP(=O)([O-])OC[C@H]1O[C@@H](n2ccc(N)nc2=O)[C@H](O)[C@@H]1O [Citicoline sodium salt] here?
Its remaining activity at 3.75 µM is 110%.

And the remaining activity at 1.25 µM ([2]; Well no.=7726)?
Its remaining activity at 1.25 µM is 104%.

For CC(COc1ccccc1)N(CCCl)Cc1ccccc1 (stereo not drawn) [Phenoxybenzamine (hydrochloride)], which remaining activity at 3.75 µM ([1]; Well no.=6797) is on record?
The remaining activity at 3.75 µM was 93.2%.

And the remaining activity at 1.25 µM ([2]; Well no.=6797)?
Its remaining activity at 1.25 µM is 99.8%.

Which remaining activity at 3.75 µM ([1]; Well no.=4353) does the source give for CCCCCCCCCCCCC(O)C(=O)O (stereo not drawn) [2-Hydroxymyristic acid] here?
The remaining activity at 3.75 µM was 102%.

What about the remaining activity at 1.25 µM ([2]; Well no.=4353) of the same compound?
The remaining activity at 1.25 µM was 103%.

CCCOc1ccc(/C=C2/SC(=O)NC2=O)cc1 [PIM1/2 Kinase Inhibitor VI] was tested. Which remaining activity at 3.75 µM ([1]; Well no.=2571) did it give?
Its remaining activity at 3.75 µM is 97%.

What about the remaining activity at 1.25 µM ([2]; Well no.=2571) of the same compound?
The remaining activity at 1.25 µM was 97.6%.

How did the remaining activity at 3.75 µM ([1]; Well no.=5957) turn out when CC(C)(CN1C(=O)C(Cl)=C(Cl)C1=O)CN1C(=O)C(Cl)=C(Cl)C1=O [1,1'-(2,2-dimethylpropane-1,3-diyl)bis(3,4-dichloro-1H-pyrrole-2,5-dione)] was run?
The remaining activity at 3.75 µM was 105%.

What about the remaining activity at 1.25 µM ([2]; Well no.=5957) of the same compound?
The remaining activity at 1.25 µM was 102%.

What does the source list for C=CCN1CCc2nc(N)sc2CC1 [B-HT 920]?
remaining activity at 3.75 µM ([1]; Well no.=8195): 100%; remaining activity at 1.25 µM ([2]; Well no.=8195): 99.9%

Which remaining activity at 3.75 µM ([1]; Well no.=5549) does the source give for O=C(Nc1cccc(C(F)(F)F)c1)Nc1cc(S(=O)(=O)NC2CC2)ccc1-c1ccsc1 [N-cyclopropyl-4-(thiophen-3-yl)-3-(3-(3-(trifluoromethyl)phenyl)ureido)benzenesulfonamide] here?
The remaining activity at 3.75 µM was 103%.

What about the remaining activity at 1.25 µM ([2]; Well no.=5549) of the same compound?
The remaining activity at 1.25 µM was 100%.

Which results are given for CC(=O)Nc1nc2c(Oc3cc(-c4ccc(C(F)(F)F)cc4)ncn3)cccc2s1 [AMG-517]?
remaining activity at 3.75 µM ([1]; Well no.=5176): 99.6%; remaining activity at 1.25 µM ([2]; Well no.=5176): 102%

Which results are given for C[C@@H](O)[C@H]1C(=O)N2C(C(=O)[O-])=C(SC3Cn4cnc[n+]4C3)[C@H](C)[C@H]12 (stereo partly drawn) [Biapenem]?
remaining activity at 3.75 µM ([1]; Well no.=5197): 100%; remaining activity at 1.25 µM ([2]; Well no.=5197): 99.1%

NCCc1ccc(O)c(O)c1 [Dopamine (hydrochloride)] was tested. Which remaining activity at 3.75 µM ([1]; Well no.=6268) did it give?
The remaining activity at 3.75 µM was 96.3%.

What about the remaining activity at 1.25 µM ([2]; Well no.=6268) of the same compound?
Its remaining activity at 1.25 µM is 96.9%.

How did the remaining activity at 3.75 µM ([1]; Well no.=5336) turn out when OC(CN1CCN(c2cccc(Cl)c2)CC1)C(c1ccccc1)c1ccccc1 (stereo not drawn) [BRL-15572] was run?
Its remaining activity at 3.75 µM is 94.2%.

What about the remaining activity at 1.25 µM ([2]; Well no.=5336) of the same compound?
The remaining activity at 1.25 µM was 94.9%.

For O=c1c(O)c(-c2ccc(O)c(O)c2)oc2cc(O)c(O)c(O)c12 [Quercetagetin], which remaining activity at 3.75 µM ([1]; Well no.=2589) is on record?
Its remaining activity at 3.75 µM is 92.1%.

What about the remaining activity at 1.25 µM ([2]; Well no.=2589) of the same compound?
Its remaining activity at 1.25 µM is 89%.

What does the source list for CCN(CC)C(=O)/C(C#N)=C/c1cc(O)c(O)c([N+](=O)[O-])c1 [Entacapone]?
remaining activity at 3.75 µM ([1]; Well no.=1888): 93%; remaining activity at 1.25 µM ([2]; Well no.=1888): 96.2%

CC[C@H]1CN(c2nc(N)c(C(N)=O)nc2Cl)CCN1C1CCN(Cc2ccc(Cl)cc2)CC1 [SCH 546738] was tested. Which remaining activity at 3.75 µM ([1]; Well no.=8659) did it give?
The remaining activity at 3.75 µM was 106%.

And the remaining activity at 1.25 µM ([2]; Well no.=8659)?
The remaining activity at 1.25 µM was 103%.

Which remaining activity at 3.75 µM ([1]; Well no.=3474) does the source give for CN1[C@H]2C[C@H](OC(=O)[C@H](CO)c3ccccc3)C[C@@H]1[C@@H](O)C2 [Anisodamine] here?
The remaining activity at 3.75 µM was 92.3%.

And the remaining activity at 1.25 µM ([2]; Well no.=3474)?
Its remaining activity at 1.25 µM is 96.3%.

Which results are given for CP(=O)(O)C1=CCNCC1 [TPMPA]?
remaining activity at 3.75 µM ([1]; Well no.=1474): 102%; remaining activity at 1.25 µM ([2]; Well no.=1474): 100%

CC1(C)NC(=O)N(c2ccc([N+](=O)[O-])c(C(F)(F)F)c2)C1=O [Nilutamide] was tested. Which remaining activity at 3.75 µM ([1]; Well no.=1147) did it give?
The remaining activity at 3.75 µM was 101%.

And the remaining activity at 1.25 µM ([2]; Well no.=1147)?
The remaining activity at 1.25 µM was 100%.

Which remaining activity at 3.75 µM ([1]; Well no.=4924) does the source give for CN(CCOc1ccc(CC2SC(=O)NC2=O)cc1)c1ccccn1 (stereo not drawn) [Rosiglitazone (Avandia)] here?
The remaining activity at 3.75 µM was 89.9%.

And the remaining activity at 1.25 µM ([2]; Well no.=4924)?
Its remaining activity at 1.25 µM is 95.4%.

O=C(N[C@H]1CCN(C(=O)c2cc(C(F)(F)F)cc(C(F)(F)F)c2)[C@H](Cc2ccc(Cl)cc2)C1)c1ccnc2ccccc12 [NKP608] was tested. Which remaining activity at 3.75 µM ([1]; Well no.=8427) did it give?
The remaining activity at 3.75 µM was 92.6%.

And the remaining activity at 1.25 µM ([2]; Well no.=8427)?
The remaining activity at 1.25 µM was 93.4%.

COc1ccnc2[nH]cc(C(=O)C(=O)N3CCN(C(=O)c4ccccc4)C[C@H]3C)c12 [BMS-378806] was tested. Which remaining activity at 3.75 µM ([1]; Well no.=8420) did it give?
Its remaining activity at 3.75 µM is 94.2%.

And the remaining activity at 1.25 µM ([2]; Well no.=8420)?
Its remaining activity at 1.25 µM is 96.7%.

Which remaining activity at 3.75 µM ([1]; Well no.=1003) does the source give for CCCCN1CCC(n2c(=O)[nH]c3ccccc32)CC1 [NS 521 oxalate] here?
Its remaining activity at 3.75 µM is 105%.

What about the remaining activity at 1.25 µM ([2]; Well no.=1003) of the same compound?
Its remaining activity at 1.25 µM is 99.3%.

Cc1nc2sccn2c(=O)c1CCN1CCC(=C(c2ccc(F)cc2)c2ccc(F)cc2)CC1 [Ritanserin] was tested. Which remaining activity at 3.75 µM ([1]; Well no.=1352) did it give?
Its remaining activity at 3.75 µM is 96.7%.

What about the remaining activity at 1.25 µM ([2]; Well no.=1352) of the same compound?
The remaining activity at 1.25 µM was 94.6%.
